3 compounds from paper PMC7468576 (Acta Pharmacologica Sinica, 2019) can be followed below.

Series [1] deals with rhTDO2 (purified TDO2 enzyme) (Homo sapiens, UniProt P48775). As to the kind of experiment: Enzymatic assay of TDO2. It counts as biochemical.
The target of series [2] is human TDO2 in HEK 293 cells (Homo sapiens, UniProt P48775). Kind of series: Cell-based assay of TDO2 activity.
The target in series [3] is T1, IDO1 (Homo sapiens, UniProt P14902). Kind of series: biochemical. The following applies: for mode of inhibition: L-tryptophan 7.5 μM to 30 μM, Fig. 4.
T1 sequence (P14902 whole entry): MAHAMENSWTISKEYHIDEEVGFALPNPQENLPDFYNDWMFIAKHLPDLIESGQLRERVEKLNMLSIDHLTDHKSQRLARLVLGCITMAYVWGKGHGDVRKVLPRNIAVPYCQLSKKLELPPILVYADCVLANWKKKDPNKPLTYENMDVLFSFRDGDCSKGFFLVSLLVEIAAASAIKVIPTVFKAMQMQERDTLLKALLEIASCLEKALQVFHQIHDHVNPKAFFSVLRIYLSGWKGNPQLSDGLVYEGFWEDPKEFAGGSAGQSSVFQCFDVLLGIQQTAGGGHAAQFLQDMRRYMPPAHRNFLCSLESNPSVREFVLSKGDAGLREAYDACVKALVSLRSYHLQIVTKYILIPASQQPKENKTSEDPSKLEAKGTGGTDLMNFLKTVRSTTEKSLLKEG
A further series has as its system HEK 293 cells. As to the kind of experiment: Cell viability assay. It counts as cell-based, human. The following applies: conditions used for the kynurenine assay.
The target in series [4] is recombinant human IDO1 (rhIDO1) (Homo sapiens, UniProt P14902). Kind of series: Enzymatic assay of IDO1. It counts as biochemical.
Sequence of recombinant human IDO1 (rhIDO1) (P14902 whole entry): as above
The target in series [5] is T1, IDO1. As to the kind of experiment: IDO1 absorbance spectra. The series is classed as binding. The following applies: compound 20 μM, rhIDO1 3 μM; for absorbance of ferric-IDO1 at 404 nm: compared with control; for absorbance of ferrous-IDO1 at 428 nm: sodium dithionite.
For series [6], the target named is human IDO1 in HEK 293 cells (Homo sapiens, UniProt P14902). Kind of series: Cell-based assay of IDO1 activity. The following applies: for inhibition of the cellular activity of IDO1: HEK 293 cells overexpressing human IDO1, kynurenine released, Fig. 2c.
Sequence of human IDO1 in HEK 293 cells (P14902 whole entry): as above

As for `CC(C)=CC[C@@H](O)C1=CC(=O)c2c(O)ccc(O)c2C1=O` [Compound 7, shikonin], the IC50 (commonly the midpoint of a concentration-inhibition curve) in series [1] amounted to 5050 nM. Also, 1400 nM corresponded to half-maximal inhibition in series [2] (IC50). Further, on IDO1 [3], the affinity corresponds to a Ki of 1400 nM and the mode of inhibition result is on record as “uncompetitive inhibition”. Further, the “effect on cell viability (CCK8)” value in the series with HEK 293 cells was “slightly reduced cell viability”. Moreover, the IC50 in series [4] was found to be 980 nM. In addition, at IDO1 [5], the “absorbance of ferric-IDO1 at 404 nm” value was “decreased” and the “absorbance of ferrous-IDO1 at 428 nm” value was “remained unchanged”. In addition, in series [6], the IC50 stood at 2200 nM and the “inhibition of the cellular activity of IDO1” value was 101.8%.

`Cc1cccc2c3c(ccc12)C1=C(C(=O)C3=O)[C@@H](C)CO1` [Compound 8, dihydrotanshinone I] came in with an IC50 in series [1] of 5100 nM. Besides, the IC50 in series [2] came out at 13300 nM. In addition, at IDO1 [3], the Ki (usually a measure of affinity in units of concentration, obtained from inhibition or displacement) is 2800 nM and the mode of inhibition result is on record as “uncompetitive inhibition”. Further, the “effect on cell viability (CCK8)” value with HEK 293 cells is “no effect on cell viability”. Moreover, the IC50 in series [4] was found to be 2800 nM. On IDO1 [5], the “absorbance of ferric-IDO1 at 404 nm” value is “decreased” and the “absorbance of ferrous-IDO1 at 428 nm” value is “remained unchanged”. In addition, in series [6], the IC50 amounted to 25700 nM and the “inhibition of the cellular activity of IDO1” value came out at 83.6%.

As for `C[C@H]1COC2=C1C(=O)C(=O)c1c2ccc2c1CCCC2(C)C` [Compound B06F5, cryptotanshinone], the inhibition at 20 µM in series [4] (read-out: IDO1 inhibitory activity of tanshinone derivatives) was > 40%.
